Results taken from the supplement of paper PMC10307832.

Legend:
Assay in all cases: relative viability (nuclei count vs DMSO), 5 days (fraction); higher = more cells survive
Trametinib + Pemetrexed = compound: CC(=O)Nc1cccc(-n2c(=O)n(C3CC3)c(=O)c3c(Nc4ccc(I)cc4F)n(C)c(=O)c(C)c32)c1 [Trametinib] + Nc1nc2[nH]cc(CCc3ccc(C(=O)N[C@@H](CCC(=O)O)C(=O)O)cc3)c2c(=O)[nH]1 [Pemetrexed] (partner 0.2 µM)
Method in brief: (§1)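 Five library-drug doses in √10 steps were combined with a fixed anchor-drug dose, or a single drug was given alone, by pin tool to lung cancer cell lines in 1536-well plates the day after seeding. Nuclei were stained and counted after 5 days. Relative viability is the nuclei count in treated wells over that in vehicle wells, taken as the median of duplicate plates.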

Trametinib + Navitoclax = compound: CC(=O)Nc1cccc(-n2c(=O)n(C3CC3)c(=O)c3c(Nc4ccc(I)cc4F)n(C)c(=O)c(C)c32)c1 [Trametinib] + CC1(C)CCC(c2ccc(Cl)cc2)=C(CN2CCN(c3ccc(C(=O)NS(=O)(=O)c4ccc(N[C@H](CCN5CCOCC5)CSc5ccccc5)c(S(=O)(=O)C(F)(F)F)c4)cc3)CC2)C1 [Navitoclax] (partner 0.5 µM)
Method in brief: as §1

[1] = compound: CN1C=C(C2=CC=CC=C21)/C=C\3/C4=C(C=CC=N4)NC3=O + O=C(c1cc(Cc2n[nH]c(=O)c3ccccc23)ccc1F)N1CCN(C(=O)C2CC2)CC1 [Olaparib] (partner 8 µM)
Method in brief: as §1

[2] = compound: CN1C=C(C2=CC=CC=C21)/C=C\3/C4=C(C=CC=N4)NC3=O + C[C@@H](Oc1cc(-c2cnn(C3CCNCC3)c2)cnc1N)c1c(Cl)ccc(F)c1Cl [Crizotinib] (partner 1 µM)
Method in brief: as §1

| Cell Line | relative viability (Trametinib + Pemetrexed; first compound 0.0025 µM) | relative viability (Trametinib + Pemetrexed; first compound 0.007906 µM) | relative viability (Trametinib + Pemetrexed; first compound 0.025 µM) | relative viability (Trametinib + Pemetrexed; first compound 0.07906 µM) | relative viability (Trametinib + Pemetrexed; first compound 0.25 µM) | relative viability (Trametinib + Navitoclax; first compound 0.0025 µM) | relative viability (Trametinib + Navitoclax; first compound 0.007906 µM) | relative viability (Trametinib + Navitoclax; first compound 0.025 µM) | relative viability (Trametinib + Navitoclax; first compound 0.07906 µM) | relative viability (Trametinib + Navitoclax; first compound 0.25 µM) | relative viability ([1]; first compound 0.02 µM) | relative viability ([1]; first compound 0.06325 µM) | relative viability ([1]; first compound 0.2 µM) | relative viability ([1]; first compound 0.6325 µM) | relative viability ([1]; first compound 2 µM) | relative viability ([2]; first compound 0.02 µM) | relative viability ([2]; first compound 0.06325 µM) | relative viability ([2]; first compound 0.2 µM) | relative viability ([2]; first compound 0.6325 µM) | relative viability ([2]; first compound 2 µM) |
| --- | --- | --- | --- | --- | --- | --- | --- | --- | --- | --- | --- | --- | --- | --- | --- | --- | --- | --- | --- | --- |
| NCI-H647 | 0.188 | 0.183 | 0.152 | 0.155 | 0.141 | 1.01 | 1.07 | 0.834 | 0.55 | 0.267 | 0.262 | 0.426 | 0.446 | 0.395 | 0.458 | 0.967 | 0.923 | 1.04 | 1.03 | 0.906 |
| PC-14 | 0.131 | 0.113 | 0.153 | 0.132 | 0.141 | 0.99 | 1.05 | 0.978 | 0.882 | 0.452 | 0.213 | 0.237 | 0.197 | 0.235 | 0.251 | 0.91 | 0.791 | 1 | 0.856 | 0.958 |
| HCC-78 | 0.843 | 0.888 | 0.893 | 0.934 | 0.924 | 0.728 | 0.591 | 0.558 | 0.624 | 0.42 | 0.78 | 0.773 | 0.688 | 0.754 | 0.818 | 0.335 | 0.26 | 0.326 | 0.337 | 0.372 |
| NCI-H1666 | 0.881 | 0.742 | 0.753 | 0.695 | 0.693 | 0.613 | 0.64 | 0.375 | 0.456 | 0.393 | 0.749 | 0.735 | 0.706 | 0.708 | 0.714 | 0.847 | 0.822 | 0.704 | 1.17 | 0.927 |
